21 compounds from US7915291B2, “Hepatitis C virus inhibitors” (Bristol-Myers Squibb Company, priority 2002, dated 2011) can be followed below.

In assay [1] the target is HCV NS3/4A protease complex, BMS strain (UniProt P27958, C1454S/C1711G, species not given/STRAIN_BMS). The experiment in a line: Recombinant HCV NS3/4A protease complex FRET peptide assay (BMS strain). In kind it is biochemical, HCV genotype 1a. The settings on record: NS3/4A BMS strain; read-out: IC50 range. The method, boiled down:
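Recombinant BMS-strain NS3/4A (His-tagged NS4A with three-lysine tail, E. coli) at 2-3 nM preincubated 1 min with compound, then 2 μM ester-linked NS4A/NS4B-based FRET peptide added. Fluorescence followed in real time ~15 min at 25° C. Percent inhibition from slope of linear fluorescence change versus no-compound control.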

The test system of assay [2] is HCV replicon in Huh7 cells. The experiment in a line: HCV replicon cell-based assay. Also noted: species or system HCV strain 1B. The settings on record: Hepatitis C virus, Huh-7; HCV replicon, Huh7 cells; read-out: EC50 range. On the technique in general: In antiviral work, replicon cells carry a viral genome segment that copies itself.

Turning to `C=CC1C[C@]1(NC(=O)[C@@H]1C[C@@H](Oc2cc(C(F)(F)F)nc3c(C(F)(F)F)cccc23)CN1C(=O)[C@@H](NC(=O)OC(C)(C)C)C(C)(C)C)C(=O)NS(=O)(=O)C1CC1` (stereo partly drawn) [Compound 181, BOCNH-P3(L-tert-BuGly)-P2[(4R)-(2,8-bistrifluoromethyl quinolin-4-oxo)-S-proline]-P1(1R,2S Vinyl Acca)-CONHSO2-Cyclopropane], the IC50 – broadly, the point on the concentration scale where inhibition reaches its midpoint – in assay [1] was less than 100 nM. Also, in assay [2], the EC50 (as a rule, the midpoint of the concentration-response curve) lay within 100 to 1000 nM.

Regarding `C=CC1C[C@]1(NC(=O)[C@@H]1C[C@@H](Oc2cc(C(F)(F)F)nc3c(OC(F)(F)F)cccc23)CN1C(=O)[C@@H](NC(=O)OC(C)(C)C)C(C)(C)C)C(=O)NS(=O)(=O)C1CC1` (stereo partly drawn) [Compound 182, BOCNH-P3(L-tert-BuGly)-P2[(4R)-(2-trifluoromethyl, 8-trifluoromethoxy quinolin-4-oxo)-S-proline]-P1(1R,2S Vinyl Acca)-CONHSO2-Cyclopropane], the IC50 in assay [1] is less than 100 nM. Also, the EC50 in assay [2] lay within 100 to 1000 nM.

In the case of `C=CC1C[C@]1(NC(=O)[C@@H]1C[C@@H](Oc2cc(C(F)(F)F)nc3c(Cl)cccc23)CN1C(=O)[C@@H](NC(=O)OC(C)(C)C)C(C)(C)C)C(=O)NS(=O)(=O)C1CC1` (stereo partly drawn) [Compound 183, BOCNH-P3(L-tert-BuGly)-P2[(4R)-(2-trifluoromethyl, 8-chloro quinolin-4-oxo)-S-proline]-P1(1R,2S Vinyl Acca)-CONHSO2-Cyclopropane], in assay [1], the IC50 is less than 100 nM. Also, the EC50 in assay [2] was less than 100 nM.

Regarding `C=CC1C[C@]1(NC(=O)[C@@H]1C[C@@H](Oc2ccnc3cc(C(F)(F)F)ccc23)CN1C(=O)[C@@H](NC(=O)OC(C)(C)C)C(C)(C)C)C(=O)NS(=O)(=O)C1CC1` (stereo partly drawn) [Compound 185, BOCNH-P3(L-tert-BuGly)-P2[(4R)-(7-trifluoromethyl quinolin-4-oxo)-S-proline]-P1(1R,2S Vinyl Acca)-CONHSO2-Cyclopropane], the IC50 in assay [1] was less than 100 nM. Also, the EC50 in assay [2] is less than 100 nM.

Take `C=CC1C[C@]1(NC(=O)[C@@H]1C[C@@H](Oc2ccnc3c(C(F)(F)F)cccc23)CN1C(=O)[C@@H](NC(=O)OC(C)(C)C)C(C)(C)C)C(=O)NS(=O)(=O)C1CC1` (stereo partly drawn) [Compound 186, BOCNH-P3(L-tert-BuGly)-P2[(4R)-(8-trifluoromethyl quinolin-4-oxo)-S-proline]-P1(1R,2S Vinyl Acca)-CONHSO2-Cyclopropane]: in assay [1], the IC50 was less than 100 nM. For the same compound, the concentration giving a half-maximal response (EC50) in assay [2] was less than 100 nM.

As to `C=CC1C[C@]1(NC(=O)[C@@H]1C[C@@H](Oc2nccc3cc(F)ccc23)CN1C(=O)[C@@H](NC(=O)OC(C)(C)C)C(C)(C)C)C(=O)NS(=O)(=O)C1CC1` (stereo partly drawn) [Compound 187, BOCNH-P3(L-tert-BuGly)-P2[(4R)-(6-fluoro isoquinolin-1-oxo)-S -proline]-P1(1R,2S Vinyl Acca)-CONHSO2-Cyclopropane], the 50% inhibitory concentration (IC50) in assay [1] is less than 100 nM. Besides, the EC50 in assay [2] fell in the range of 100 to 1000 nM.

Take `C=CC1C[C@]1(NC(=O)[C@@H]1C[C@@H](Oc2ccc3c(Cl)nccc3c2)CN1C(=O)[C@@H](NC(=O)OC(C)(C)C)C(C)(C)C)C(=O)NS(=O)(=O)C1CC1` (stereo partly drawn) [Compound 188, BOCNH-P3(L-tert-BuGly)-P2[(4R)-(1-chloro isoquinolin-6-oxo)-S -proline]-P1(1R,2S Vinyl Acca)-CONHSO2-Cyclopropane]: the IC50 in assay [1] was less than 100 nM. In assay [2], the EC50 is 100 to 1000 nM.

With `C=CC1C[C@]1(NC(=O)[C@@H]1C[C@@H](Oc2nccc3cc(CC)ccc23)CN1C(=O)[C@@H](NC(=O)OC(C)(C)C)C(C)(C)C)C(=O)NS(=O)(=O)C1CC1` (stereo partly drawn) [Compound 189, BOCNH-P3(L-tert-BuGly)-P2[(4R)-(6-ethyl isoquinolin-1-oxo)-S -proline]-P1(1R,2S Vinyl Acca)-CONHSO2-Cyclopropane], the IC50 in assay [1] is less than 100 nM. Also, in assay [2], the concentration giving a half-maximal response (EC50) was in the range of 100 to 1000 nM.

In the case of `C=CC1C[C@]1(NC(=O)[C@@H]1C[C@@H](Oc2nccc3cc(C(C)C)ccc23)CN1C(=O)[C@@H](NC(=O)OC(C)(C)C)C(C)(C)C)C(=O)NS(=O)(=O)C1CC1` (stereo partly drawn) [Compound 190, BOCNH-P3(L-tert-BuGly)-P2[(4R)-(6-isopropyl isoquinolin-1-oxo)-S-proline]-P1(1R,2S Vinyl Acca)-CONHSO2-Cyclopropane], in assay [1], the IC50 is less than 100 nM. For the same compound, in assay [2], the concentration for a half-maximal effect (EC50) lay within 100 to 1000 nM.

In the case of `C=CC1C[C@]1(NC(=O)[C@@H]1C[C@@H](Oc2nccc3cc(C(C)(C)C)ccc23)CN1C(=O)[C@@H](NC(=O)OC(C)(C)C)C(C)(C)C)C(=O)NS(=O)(=O)C1CC1` (stereo partly drawn) [Compound 191, BOCNH-P3(L-tert-BuGly)-P2[(4R)-(6-tert-butyl isoquinolin-1-oxo)-S-proline]-P1(1R,2S Vinyl Acca)-CONHSO2-Cyclopropane], in assay [1], the IC50 is less than 100 nM. The EC50 in assay [2] was 100 to 1000 nM.

For `C=CC1C[C@]1(NC(=O)[C@@H]1C[C@@H](Oc2nccc3cc(OC(C)C)ccc23)CN1C(=O)[C@@H](NC(=O)OC(C)(C)C)C(C)(C)C)C(=O)NS(=O)(=O)C1CC1` (stereo partly drawn) [Compound 192, BOCNH-P3(L-tert-BuGly)-P2[(4R)-(6-isopropoxy isoquinolin-1-oxo)-S-proline]-P1(1R,2S Vinyl Acca)-CONHSO2-Cyclopropane], the IC50 in assay [1] was less than 100 nM. Moreover, the half-maximal effective concentration (EC50) in assay [2] was less than 100 nM.

For `C=CC1C[C@]1(NC(=O)[C@@H]1C[C@@H](Oc2nccc3cc(OC(C)(C)C)ccc23)CN1C(=O)[C@@H](NC(=O)OC(C)(C)C)C(C)(C)C)C(=O)NS(=O)(=O)C1CC1` (stereo partly drawn) [Compound 193, BOCNH-P3(L-tert-BuGly)-P2[(4R)-(6-tert-butoxy isoquinolin-1-oxo)-S-proline]-P1(1R,2S Vinyl Acca)-CONHSO2-Cyclopropane], in assay [1], the IC50 was less than 100 nM. Further, the concentration giving a half-maximal response (EC50) in assay [2] was 100 to 1000 nM.

In the case of `C=CC1C[C@]1(NC(=O)[C@@H]1C[C@@H](Oc2nncc3ccccc23)CN1C(=O)[C@@H](NC(=O)OC(C)(C)C)C(C)(C)C)C(=O)NS(=O)(=O)C1CC1` (stereo partly drawn) [Compound 194, BOCNH-P3(L-tert-BuGly)-P2[(4R)-(phthalazine-1-oxo)-S-proline]-P1(1R,2S Vinyl Acca)-CONHSO2-Cyclopropane], the IC50 in assay [1] was less than 100 nM. Also, the EC50 in assay [2] lay in the range of 100 to 1000 nM.

Turning to `C=CC1C[C@]1(NC(=O)[C@@H]1C[C@@H](Oc2nnc(Cl)c3ccccc23)CN1C(=O)[C@@H](NC(=O)OC(C)(C)C)C(C)(C)C)C(=O)NS(=O)(=O)C1CC1` (stereo partly drawn) [Compound 195, BOCNH-P3(L-tert-BuGly)-P2[(4R)-(4-chloro phthalazine-1-oxo)-S -proline]-P1(1R,2S Vinyl Acca)-CONHSO2-Cyclopropane], the 50% inhibitory concentration (IC50) in assay [1] was less than 100 nM. In assay [2], the EC50 was less than 100 nM.

`C=CC1C[C@]1(NC(=O)[C@@H]1C[C@@H](Oc2nnc(-n3ccnc3)c3ccccc23)CN1C(=O)[C@@H](NC(=O)OC(C)(C)C)C(C)(C)C)C(=O)NS(=O)(=O)C1CC1` (stereo partly drawn) [Compound 196, BOCNH-P3(L-tert-BuGly)-P2[(4R)-(4-(imidazo-1-yl)phthalazine-1-oxo)-S-proline]-P1(1R,2S Vinyl Acca)-CONHSO2-Cyclopropane]: the IC50 in assay [1] is less than 100 nM. Further, the EC50 in assay [2] was in the range of 1000 to 10000 nM.

For the compound `C=CC1C[C@]1(NC(=O)[C@@H]1C[C@@H](Oc2nnc(-n3ccnc3)c3ccccc23)CN1C(=O)[C@@H](N)C(C)(C)C)C(=O)NS(=O)(=O)C1CC1` (stereo partly drawn) [Compound 197, NH2—P3(L-tert-BuGly)-P2[(4R)-(4-(imidazo-1-yl)phthalazine-1-oxo)-S-proline]-P1(1R,2S Vinyl Acca)-CONHSO2-Cyclopropane], the IC50 in assay [1] lay within 100 to 1000 nM. Also, the EC50 in assay [2] lay in the range of 10000 to 100000 nM.

Take `C=CC1C[C@]1(NC(=O)[C@@H]1C[C@@H](Oc2nnc(-n3cncn3)c3ccccc23)CN1C(=O)[C@@H](NC(=O)OC(C)(C)C)C(C)(C)C)C(=O)NS(=O)(=O)C1CC1` (stereo partly drawn) [Compound 198, BOCNH-P3(L-tert-BuGly)-P2[(4R)-(4-(1,2,4-triazo-1-yl)phthalazine-1-oxo)-S-proline]-P1(1R,2S Vinyl Acca)-CONHSO2-Cyclopropane]: the IC50 in assay [1] is less than 100 nM. Besides, the 50% effective concentration (EC50) in assay [2] is 100 to 1000 nM.

With `C=CC1C[C@]1(NC(=O)[C@@H]1C[C@@H](Oc2nnc(OC(C)C)c3ccccc23)CN1C(=O)[C@@H](NC(=O)OC(C)(C)C)C(C)(C)C)C(=O)NS(=O)(=O)C1CC1` (stereo partly drawn) [Compound 199], the IC50 in assay [1] is less than 100 nM. Further, the EC50 in assay [2] fell in the range of 100 to 1000 nM.

For the compound `C=CC1C[C@]1(NC(=O)[C@@H]1C[C@@H](Oc2nnc(OCC)c3ccccc23)CN1C(=O)[C@@H](NC(=O)OC(C)(C)C)C(C)(C)C)C(=O)NS(=O)(=O)C1CC1` (stereo partly drawn) [Compound 200, BOCNH-P3(L-t-BuGly)-P2-[(4R)-(4-ethoxyphthalazine-1-oxo)-S-proline]-P1(1R,2S VinylAcca)-CONHSO2Cyclopropane], the IC50 in assay [1] was less than 100 nM. Also, in assay [2], the EC50 was less than 100 nM.

On to `C=CC1C[C@]1(NC(=O)[C@@H]1C[C@@H](Oc2nnc(OC)c3ccccc23)CN1C(=O)[C@@H](NC(=O)OC(C)(C)C)C(C)(C)C)C(=O)NS(=O)(=O)C1CC1` (stereo partly drawn) [Compound 201, BOCNH-P3(L-t-BuGly)-P2-[(4R)-(4-methoxyphthalazine-1-oxo)-S -proline]-P1(1R,2S VinylAcca)-CONHSO2Cyclopropane], for which, in assay [1], the IC50 is less than 100 nM. In assay [2], the EC50 was less than 100 nM.

In the case of `C=CC1C[C@]1(NC(=O)[C@@H]1C[C@@H](Oc2nnc(O)c3ccccc23)CN1C(=O)[C@@H](NC(=O)OC(C)(C)C)C(C)(C)C)C(=O)NS(=O)(=O)C1CC1` (stereo partly drawn) [Compound 202, BOCNH-P3(L-t-BuGly)-P2[(4R)-(4-hydroxyphthalazine-1-oxo)-S -proline]P1(1R,2S VinylAcca)-CONHSO2Cyclopropane], in assay [1], the IC50 was less than 100 nM. The EC50 in assay [2] was 1000 to 10000 nM.
